Laboratory results as given in paper PMC4350332 (Oncotarget, 2014).
pIC50: −log10 of the molar value.

Columns and labels:
[1] = system: p(Ser^293)E1α levels in ES-2 cells; test: Phospho(Ser293) E1α suppression in ES-2 cells; format: cell-based
Protocol: Phospho(Ser^293) E1α MSD ELISA assay: All reagents were purchased from Meso Scale Discovery (Maryland, USA) unless otherwise stated. Following compound treatment, cells were treated with lysis buffer (TBS pH 7.4, 1% Tween-20, 1 mM EGTA, 1 mM EDTA, 1 mM NaF, protease and phosphatase inhibitor cocktails (Roche)) on ice and the lysates added to standard bind 96 well MSD plates which were pre-loaded with custom phospho(Ser^293)E1α ‘capture’ antibody (2 μg/ml in TBST containing 3% (w/v) blocker A) (Genescript) and blocked with 3% (w/v) blocker A, followed by a 1 h incubation at RT. The wells were then washed 3X with TBST (0.05% tween 20) followed by the addition of 2 μg/ml E1α ‘detection’ antibody (2 μg/ml) (Abcam) and a further 1 h incubation at RT. The wells were again washed 3X with TBST followed by the addition of 1 μg/ml Goat anti-mouse Sulfotag antibody, and a further TBST wash prior to the addition of 2X read buffer T. The chemiluminescent signal was then measured on a MSD sector imager 2400.

PDK-4 = molecular target: T1, PDK-4 (Homo sapiens, UniProt Q16654); test: DELFIA-based enzyme functional assay (E1 substrate), PDK-4; format: biochemical; settings: data not shown
T1 construct: PDK-4: residues 1-412; made in house; host or cells: E. coli BL21

PDK-1 = PDK-1 (Homo sapiens, UniProt Q15118); settings: read-out: In vitro functional (E1/E2), IC50, PDK-1; E1/E2 as the substrate
Protocol: DELFIA assay reagents (assay buffer, wash buffer, enhancement solution and anti-rabbit IgG-Eu-N1 secondary antibody) and plates were obtained from Perkin Elmer (MD, USA). Test compounds were subjected to a 10 point tripling dilution in DMSO, diluted in MOPS buffer (60mM MOPS pH7.2, 15 mM Magnesium acetate, 60 mM KCl) and added to the enzyme mix (10 nM PDK-1, 2 and 3 or 20 nM PDK-4, 300nM E1, 0.1 mg/mL BSA, 1 mM DTT) in 96-well V-bottom plates (Greiner). The reaction was initiated by the addition of ATP to a final concentration of 5 μM followed by a 1 h incubation at 30°C. The reaction was then stopped by the addition of STOP solution (50 mM Carbonate-Bicarbonate Buffer, pH 9.6), and then transferred to 96 well DEFLIA yellow plates. The plates were then sealed and incubated o/n at 4°C. Detection and quantification of p(Ser^293)E1α levels was then achieved through incubation with anti-p(Ser^293)E1α primary antibody (Genescript) followed by anti-rabbit secondary IgG-Eu-N1 antibody and addition of enhancement solution as per the manufacturer's instructions. The time-resolved fluorescent signal was then measured using a Victor2 plate reader (Perkin Elmer). The data was fitted by non-linear regression using XLFIT4 within a custom ABASE (IDBS) protocol in order to determine IC50 values.

[2] = system: PC-3, K562, Jurkat and MDA-MD-453 cell lines; test: Growth in D-glucose or D-galactose media (Sulforhodamine B); format: cell-based; settings: 20 μM, 96 h
Protocol: transformed and additional cancer cell lines. A, The indicated cell lines were seeded into
relevant media containing either 2 g/L D-glucose or D-galactose for 96 h. Cell mass was determined using the sulforhodamine B assay. Results are expressed as the percentage change vs DMSO control values for cells incubated in D-glucose containing media.
Experiments were performed in triplicate (A & C) or quadruplicate (B). Error bars represent standard deviation of the mean (*, P < 0.01).

PC-3 cells [3] = test: Potentiation assay with cancer therapeutic agents, PC-3; format: cell-based
Protocol: (§1) The cells were then incubated for 120 h followed by cell mass determination using the Sulforhodamine B assay. […] Drug interactions were analyzed by the combination index (CI) method based on the method described by Chou. CI values <0.9 indicates synergism, 0.9 to 1.1 additivity, and >1.1 antagonism. The data was expressed in the form of Fa-CI simulation plot generated using calcusyn software (Biosoft). Potentiation assays were carried out as described previously.

PC-3 cells [4] = test: Combination index analysis and potentiation with β-Chloro-alanine; format: cell-based; settings: 20 μM VER-246608
Protocol: as §1

panel of 97 kinases = test: scanEDGE kinase selectivity screen (DiscoverX); format: binding; settings: 10 μM
Source text: A proprietary active site-directed competition binding assay was employed to quantitatively measure interactions between test compounds and the individual kinases on the panel. Results were expressed as a percentage of control binding, with 0% indicating complete binding of the test compound.

PC-3 spheroids = test: Spheroid growth assay (3D culture); format: cell-based; settings: concentrations of 10 μM and above
Protocol: (§2) Compound cytotoxicity was determined using the Sulforhodamine B assay for cells cultured as a monolayer as described previously (45). For spheroid growth experiments, PC-3 cells were seeded (500 cells/well) into 96 well round bottom plates (Corning Costar 7007) in RPMI-1640 media containing 2.5% (w/v) Matrigel (BD Biosciences). […] Spheroid volumes were determined by obtaining diameter measurements from images taken on a Zeiss Axiovert 200M inverted microscope using the axiovision software.

HFF cells = test: Sulforhodamine B cytotoxicity, HFF cells; format: cell-based, human; settings: all of the conditions tested, 120 h
Protocol: Compound cytotoxicity was determined using the Sulforhodamine B assay for cells cultured as a monolayer as described previously (45). For spheroid growth experiments, PC-3 cells were seeded (500 cells/well) into 96 well round bottom plates (Corning Costar 7007) in RPMI-1640 media containing 2.5% (w/v) Matrigel (BD Biosciences). […] Spheroid volumes were determined by obtaining diameter measurements from images taken on a Zeiss Axiovert 200M inverted microscope using the axiovision software. […]
oncogenic KRAS(G13D) and BRAF(V600E) mutations. A and B, Cell lines harboring a KRAS(G13D) mutation (HCT-116, DLD-1 and MDA-MB-231), wild-type KRAS (MDA-MB-453) or a BRAF(V600E) mutation (A2058 and A375) were seeded into 96 well plates. The […]
DMSO in different culture conditions for 120 h. Cell mass was determined using the suforhodamine B assay. Norm = glucose-free media supplemented with 10% FCS and 2 g/L D-glucose; VLG (very low glucose) = 0.1 g/L D-glucose; LS (low serum) = 0.5% FCS.
Experiments were performed in triplicate. Error bars represent standard deviation of the […]
(1 picture or pasted object on this page, not shown here)

PC-3 cells [5] = test: Cell cycle and sub-G1 analysis (PI/FACS); format: cell-based; settings: PC-3, 20 μM, 48 h
Protocol: PC-3 cells were seeded into 6-well plates at a density of 1×10^5 cells per well. […] Following ethanol fixation and treatment with RNAse (Sigma), cellular DNA was stained with propidium iodide (50 μg/mL). The samples were then acquired on a FACSArray (BD Biosciences) flow cytometer and the data analyzed using FACSDiva software.

[6] = system: PC-3, SW-1088, UM-22B and MEF cell lines; test: Sulforhodamine B cytotoxicity, cell line set; format: cell-based
Protocol: as §2

Jurkat cells = test: 13C-NMR metabolite analysis in Jurkat cells; format: cell-based; settings: 20 μM
Protocol: Jurkat cells (5 X 106) were pre-treated in RPMI-1640 media containing either DMSO or 20
μM VER-00246608 for 1 h. The cells were then pelleted and washed in PBS containing
DMSO/compound and re-suspended in glucose-free RPMI-1640 media containing 10% FCS
cell suspension was then transferred to a 5mm NMR tube and placed into the sample probe of
a Bruker DRX600 NMR spectrometer. The probe was pre-equilibrated to 37°C and shimmed
on a matched sample. Pulses were also calibrated on the matched sample. The sample
containing the Jurkat cells was rapidly shimmed and data acquisition initiated within 15
1D 13C NMR spectra (240ppm sweep width, 64k acquired points, 64 scans) were then
acquired at 10 minute intervals up to 2 h. The glucose and lactate peaks were converted to
concentrations by referencing to a cell-free reference sample containing the same
concentration of 1,6-13C-D-Glucose (11 mM).
D, Jurkat cells (5 X 106) were pre-treated in RPMI-
suspension in glucose-free RPMI-1640 media supplemented with 2 g/L 1,6-13C-D-Glucose followed by kinetic acquisition of 13C-NMR spectra at 10 min intervals. Representative curves from duplicate treatments are shown.

Chain of PDK-1 (Q15118 30-436): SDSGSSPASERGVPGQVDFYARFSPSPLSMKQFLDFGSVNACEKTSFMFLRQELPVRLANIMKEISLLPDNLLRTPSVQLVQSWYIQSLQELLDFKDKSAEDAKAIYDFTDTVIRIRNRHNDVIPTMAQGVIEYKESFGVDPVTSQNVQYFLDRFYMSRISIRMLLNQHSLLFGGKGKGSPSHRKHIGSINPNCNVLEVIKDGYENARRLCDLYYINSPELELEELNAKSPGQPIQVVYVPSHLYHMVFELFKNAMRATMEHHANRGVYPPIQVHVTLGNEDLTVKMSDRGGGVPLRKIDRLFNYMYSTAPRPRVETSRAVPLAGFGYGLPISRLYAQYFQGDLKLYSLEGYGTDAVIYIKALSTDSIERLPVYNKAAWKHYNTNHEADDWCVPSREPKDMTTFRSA
T1 sequence (Q16654 whole entry, the tested form may be a part): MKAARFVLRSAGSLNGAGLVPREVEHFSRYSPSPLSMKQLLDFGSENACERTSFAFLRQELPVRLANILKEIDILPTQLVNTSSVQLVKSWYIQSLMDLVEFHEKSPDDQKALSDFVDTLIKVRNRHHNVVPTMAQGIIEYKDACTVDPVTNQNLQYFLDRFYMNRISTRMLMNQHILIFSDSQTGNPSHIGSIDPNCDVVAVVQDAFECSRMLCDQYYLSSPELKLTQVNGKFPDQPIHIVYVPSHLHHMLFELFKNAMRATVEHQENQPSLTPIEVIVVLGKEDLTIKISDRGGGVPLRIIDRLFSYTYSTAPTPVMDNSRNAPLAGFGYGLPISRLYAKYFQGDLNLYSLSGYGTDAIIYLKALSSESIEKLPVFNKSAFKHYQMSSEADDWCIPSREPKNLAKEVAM

Row | Compound | Sub-maximal suppression of p(Ser^293)E1α levels [1] [%] | Stimulation of PDK-4 activity (PDK-4) | pIC50 (PDK-1) | Effect on growth in D-glucose or D-galactose containing media [2] | Potentiation of the remaining three agents (BEZ235, Cisplatin and 3-Bromopyruvate) (PC-3 cells [3]) | Potentiation of doxorubicin (PC-3 cells [3]; PC-3 cells) [fold] | Potentiation factor for β-Chloro-alanine (PC-3 cells [4]) | Number of further kinases with ligand binding between 10 and 35% of control (panel of 97 kinases) | Number of kinases with ligand binding reduced to ≤ 10% of control values (panel of 97 kinases) | Kinases on the panel with significant or partial binding (panel of 97 kinases; ligand binding reduced to ≤35% of control) [%] | Reduction in spheroid volume (PC-3 spheroids) | Activity against HFF cells (HFF cells) | Cell cycle distribution (PC-3 cells [5]; serum-starved conditions) | Apoptosis induction (sub-G1 fraction) (PC-3 cells [5]; standard and serum-depleted conditions) | Compound potency under hypoxic conditions ([6]; 0.1% O2) | Cytotoxicity (reduced cell mass) in standard culture ([6]; Sulforhodamine B assay, standard media) | Decrease in the rate of D-glucose consumption (Jurkat cells) [%] | Decrease in the rate of L-lactate production (Jurkat cells) [%]
1 | C[C@@H]1CN(C(=O)[C@](C)(O)C(F)(F)F)[C@@H](C)CN1C(=O)c1ccc(C#N)cc1 [Nov3r, reference compound] | 80 | approximately 2 fold | 8.52 |  |  |  |  |  |  |  |  |  |  |  |  |  |  | 
2 | Cc1cnc(Cl)nc1-c1ccc(N(Cc2ccc(CNC(=O)C(F)F)cc2)C(=O)c2ccc(O)cc2O)cc1 [VER-246608] |  |  |  | little to no effect | No evidence of potentiation | 2 | 1.8 ± 0.06 | seven | one | 8 | approximately 50% | largely inactive | increased fraction of cells in the G1 phase | No evidence of apoptosis induction | no evidence of augmented compound potency | weakly cytotoxic | 23 | 25
